# Results taken from ChEMBL document CHEMBL1671782, “Cationic surfactants derived from lysine: effects of their structure and charge type on antimicrobial and hemolytic activities” (J Med Chem, 2011).
# The source made the active and inactive calls. The rule behind the calls is not given here. Peptide text beside a SMILES is read from it. * marks the point of attachment. Lauroyl = CCCCCCCCCCCC(=O)*
# Columns and labels:
# Micrococcus luteus [1] = assay: microbe, parasite or virus in culture; conditions: ATCC 9341, 24 h
# Description: Antimicrobial activity against Micrococcus luteus ATCC 9341 assessed as inhibition of visible growth after 24 hrs at pH 7.4
# Staphylococcus aureus [2] = assay: microbe, parasite or virus in culture; conditions: ATCC 25178, 24 h
# Description: Antimicrobial activity against Staphylococcus aureus ATCC 25178 assessed as inhibition of visible growth after 24 hrs at pH 7.4
# in vitro = conditions: human, erythrocytes
# Description: Toxicity in human erythrocytes assessed as hemolytic activity measured after 10 mins shaking
# Bacillus subtilis = assay: microbe, parasite or virus in culture; conditions: ATCC 6633, 24 h
# Description: Antimicrobial activity against Bacillus subtilis ATCC 6633 assessed as inhibition of visible growth after 24 hrs at pH 7.4
# [3] = system: Staphylococcus epidermidis; assay: microbe, parasite or virus in culture; conditions: ATCC 155-1, 24 h
# Description: Antimicrobial activity against Staphylococcus epidermidis ATCC 155-1 assessed as inhibition of visible growth after 24 hrs at pH 7.4
# Klebsiella pneumoniae [4] = assay: Antimicrobial activity against Klebsiella pneumoniae ATCC 9721 at 250 ug/ml at pH 7.4; format: functional, organism-based
# Escherichia coli [5] = conditions: ATCC 27325
# Description: (§1) Antimicrobial activity against Escherichia coli ATCC 27325 assessed as inhibition of visible growth after 24 hrs at pH 7.4
# Pseudomonas aeruginosa = assay: microbe, parasite or virus in culture; conditions: ATCC 9721, 24 h
# Description: Antimicrobial activity against Pseudomonas aeruginosa ATCC 9721 assessed as inhibition of visible growth after 24 hrs at pH 7.4
# Candida albicans = assay: microbe, parasite or virus in culture; conditions: ATCC 10231, 24 h
# Description: Antimicrobial activity against Candida albicans ATCC 10231 assessed as inhibition of visible growth after 24 hrs at pH 7.4
# Klebsiella pneumoniae [6] = assay: microbe, parasite or virus in culture; conditions: ATCC 9721, 24 h
# Description: Antimicrobial activity against Klebsiella pneumoniae ATCC 9721 assessed as inhibition of visible growth after 24 hrs at pH 7.4
# Escherichia coli [7] = assay: microbe, parasite or virus in culture; conditions: ATCC 27325, 24 h
# Description: as §1
# Staphylococcus aureus [8] = assay: Antimicrobial activity against Staphylococcus aureus ATCC 25178 at 250 ug/ml at pH 7.4; format: functional, organism-based
# Micrococcus luteus [9] = assay: Antimicrobial activity against Micrococcus luteus ATCC 9341 at 250 ug/ml at pH 7.4; format: functional, organism-based
# Description for physchem: Dissociation constant, pKa of the compound
Structure (SMILES),MIC (Micrococcus luteus [1]),MIC (Staphylococcus aureus [2]),HC50 at 10 min (in vitro),MIC (Bacillus subtilis),MIC [3],Activity (Klebsiella pneumoniae [4]),Activity (Escherichia coli [5]),MIC (Pseudomonas aeruginosa),MIC (Candida albicans),MIC (Klebsiella pneumoniae [6]),MIC (Escherichia coli [7]),pKa (physchem),Activity (Staphylococcus aureus [8]),Activity (Micrococcus luteus [9])
CCCCCCCCCCCC(=O)N[C@@H](CCCCN)C(=O)NCCCCCCNC(=O)[C@H](CCCCN)NC(=O)CCCCCCCCCCC,154 µM,154 µM,475 µM,308 µM,77 µM,inactive,inactive,,,,,,,
CCCCCCCCCCCC(=O)N[C@@H](CCCCN)C(=O)OC,83 µM,166 µM,199 µM,331 µM,83 µM,,,331 µM,166 µM,331 µM,331 µM,10,,
CCCCCCCCCCCC(=O)NCCCC[C@H](N)C(=O)NCCCCCCNC(=O)[C@@H](N)CCCCNC(=O)CCCCCCCCCCC,,,116 µM,308 µM,38 µM,inactive,,,,,,,inactive,inactive
CCCCCCCCCCCC(=O)NCCCC[C@@H](C(=O)NCCCCCCNC(=O)[C@H](CCCCNC(=O)CCCCCCCCCCC)[N+](C)(C)C)[N+](C)(C)C,67 µM,67 µM,11 µM,16 µM,16 µM,inactive,,,67 µM,,,,,
CCCCCCCCCCCC(=O)N[C@@H](CCCNC(=N)N)C(=O)N[C@@H](CCCCN)C(=O)OC (Lauroyl-Arg-Lys-OMe),28 µM,54 µM,1350 µM,28 µM,218 µM,,,218 µM,218 µM,218 µM,218 µM,10,,
CCCCCCCCCCCC(=O)NCCCC[C@H](N)C(=O)NCCCCNCCCNC(=O)[C@@H](N)CCCCNC(=O)CCCCCCCCCCC,142 µM,,12 µM,142 µM,142 µM,inactive,,142 µM,285 µM,,,,inactive,
CCCCCCCCCCCC(=O)N[C@@H](CCCNC(=N)N)C(=O)NCCCC[C@H](N)C(=O)OC,436 µM,436 µM,791 µM,218 µM,436 µM,inactive,,,436 µM,,,10,,
CCCCCCCCCCCC(=O)NCCCC[C@H](N)C(=O)OC,331 µM,331 µM,391 µM,331 µM,166 µM,,,,166 µM,331 µM,166 µM,10,,
